Reference: patent US20200405868A1, “GEL-FORMING POLYPEPTIDES” (priority 2018, published 2020)
Entries after “also recorded” stand apart in the source; their conditions may differ. Blank lines part the entries; values can stand above or below the compound they belong to. *1 amine or outer side, *2 acyl side, *3 side chain or, on linkers, in order; H or OH if unused. Where a SMILES comes first, the peptide text is derived from it. Where no end group is shown, it is not given here. [ ]: non-standard residue; d: D form. The star is where a group is joined. FITC = O=C1OC2(c3ccc(O)cc3Oc3cc(O)ccc32)c2ccc(NC(=S)*)cc21; K(Pal) = CCCCCCCCCCCCCCCC(=O)NCCCC[C@H](N[*:1])C(=O)[*:2]; d2Nal = N[C@H](Cc1ccc2ccccc2c1)C(=O)O

Experiment: Compound gel-forming ability in water (visual inspection, tube tapping assay, tilted tube assay);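 also: peptides mixed with de-ionized water at about 22-25 °C, judged after 20 min by eye plus tube tapping (10 taps, moves counted) and 90° tilt mobility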
Assay type: physicochemical
Conditions: for gel formation at 6% w/w: 6% w/w in water; for gel formation at 11% w/w: 11% w/w in water; for Physical property at 11% w/w: 11% w/w in aqueous solution, room temperature; for gel formation in aqueous solution, 11% / gel formation in aqueous solution, 20% / gel formation in aqueous solution, 6%: Table 3; for gel formation in aqueous solution, 11% / propensity to form gels, wild-type counterparts, 11%: 11% w/w; for gel formation in aqueous solution, 20% / propensity to form gels, wild-type counterparts, 20%: 20% w/w; for propensity to form gels, wild-type counterparts, 6% / gel formation in aqueous solution, 6%: 6% w/w; for gel formation at the selected concentration: selected concentration (i.e., at 30%, 20%, 11%, or 6% w/w); for gel formation at 20% w/w: 20% w/w in water
Protocol: Determination of Compound Gel-forming Ability in Water: To determine the solubility of polypeptides at room temperature, 1, 2, 3, 4, 5, 20, or 100 mg of a selected peptide is weighed and deposited into a clear plastic or glass vial and an aliquot of de-ionized water was then added to the vial. The procedure takes place in a room which is maintained at approximately 22-25° C. […] Insoluble peptides sample retained the particles or paste-like characteristics after 20 min of reaction. In addition to visual inspection, we performed a tube tapping assay and a tilted tube assay to differentiate the gelling status of peptide solutions.
To determine the solubility of polypeptides at room temperature, 1, 2, 3, 4, 5, 20, or 100 mg of a selected peptide is weighed and deposited into a clear plastic vial and an aliquot of de-ionized water was then added to the vial. The procedure takes place in a room which is maintained at approximately 22-25° C. Polypeptide sample which is considered soluble dissolves instantly in water and stays as a clear solution without obvious macroscopic change in viscosity at 20 min after mixing with water. […] If macroscopic particles of peptides remain in the solution at 20 min after mixing with water, the peptide is considered insoluble or precipitated at the given concentration. In this case, the quality of peptides is further judged by two other criteria: (1) mobility following a tapping of the tube (tube tapping assay) and (2) mobility flowing tilting the tube by 900 (tilted tube assay). In the first assay, the tube is tapped with the finger for 10 times, and the number of times that the body of the solution changes position is recorded. An aqueous solution such as water will have a score of 9 or 10 in this assay; meaning that the body of the liquid moves every time when one taps the tube. […] Those with moderate viscosity form liquid gel that changes the conformation slowly when the container tube is tapped with a finger or tilted. […] If macroscopic change in the position of the body of gel was observed 5-9 time out of 10 separate tapping tests, the gel is considered a liquid gel. The high viscosity of a liquid gel is further confirmed using the tilted tube assay. […] If the liquid or gel body takes more than 15 seconds to flow to the bottom of the tilted tube, the resulting aqueous mass is considered a liquid gel.
To allow systematic analysis of the gel-forming ability, the assay was first conducted at a peptide concentration of 11% w/w in aqueous solution. The peptides analyzed included functional regulators of cell surface receptors, enzymes, complement factors, antimicrobial peptides, immunomodulators, therapeutic peptides, cell-penetrating peptide, antigens, matrikines, and analogs of CGRP, adrenomedullin and adenomedullin 2 (or intermedin).

- gel formation at 6% w/w: does not form gel
- gel formation at 11% w/w: semisolid gel
- Physical property at 11% w/w (Table 1): SS (SS for semisolid gel)
- gel formation in aqueous solution, 20%: SS (SS for semisolid gel)
- propensity to form gels, wild-type counterparts, 6% (Table 5): AS/IS
Compound: CC[C@H](C)[C@H](NC(=O)[C@@H]1CCCN1C(=O)CNC(=O)[C@H](Cc1ccccc1)NC(=O)[C@H](CC(N)=O)NC(=O)[C@H](CC(N)=O)NC(=O)[C@H](CO)NC(=O)[C@H](CO)NC(=O)[C@H](Cc1c[nH]cn1)NC(=O)[C@@H](NC(=O)[C@H](CC(C)C)NC(=O)[C@H](Cc1ccccc1)NC(=O)[C@H](CC(N)=O)NC(=O)[C@H](C)NC(=O)[C@H](CC(C)C)NC(=O)[C@H](CCCNC(=N)N)NC(=O)[C@H](CCC(N)=O)NC(=O)[C@@H](NC(=O)[C@H](C)NC(=O)[C@@H]1CSSC[C@H](NC(=O)[C@@H](N)CCCCN)C(=O)N[C@@H](CC(N)=O)C(=O)N[C@@H]([C@@H](C)O)C(=O)N[C@@H](C)C(=O)N[C@@H]([C@@H](C)O)C(=O)N1)[C@@H](C)O)C(C)C)C(=O)N[C@@H](CC(C)C)C(=O)N1CCC[C@H]1C(=O)N1CCC[C@H]1C(=O)N[C@H](C(=O)N[C@@H](CC(N)=O)C(=O)N[C@H](C(=O)NCC(=O)N[C@@H](CO)C(=O)N[C@@H](CC(N)=O)C(=O)N[C@H](C(=O)N[C@@H](Cc1ccc(O)cc1)C(N)=O)[C@@H](C)O)C(C)C)[C@@H](C)O [SEQ ID NO:4, reference compound]
- gel formation in aqueous solution, 11%: AS/IS (AS/IS for aqueous solution or insoluble)
- propensity to form gels, wild-type counterparts, 11% (Table 5): SS (An ability to form semisolid gel is represented by an SS)

- gel formation at 6% w/w: does not form liquid or semisolid gel
- gel formation at 11% w/w: semisolid gel
- Physical property at 11% w/w (Table 1): SS (SS for semisolid gel)
- gel formation in aqueous solution, 11%: SS (SS for semisolid gel)
- propensity to form gels, wild-type counterparts, 6% (Table 5): AS/IS
Compound: CC[C@H](C)[C@@H]1NC(=O)[C@H](Cc2ccc(O)cc2)NC(=O)[C@@H](N)CSSC[C@@H](C(=O)N2CCC[C@H]2C(=O)N[C@@H](CC(C)C)C(=O)NCC(N)=O)NC(=O)[C@H](CC(N)=O)NC(=O)[C@H](CCC(N)=O)NC1=O [SEQ ID NO:5, reference compound]
- gel formation in aqueous solution, 6%: AS/IS (AS/IS for aqueous solution or insoluble)
- propensity to form gels, wild-type counterparts, 11% (Table 5): SS (An ability to form semisolid gel is represented by an SS)
- gel formation at the selected concentration: only form aqueous solution or are insoluble

- gel formation at 3% w/w (3% w/w in water): liquid gel
- gel formation at 6% w/w: semisolid gel
- Physical property at 11% w/w (Table 1): SS (SS for semisolid gel)
- gel formation in aqueous solution, 6%: SS (SS for semisolid gel)
- gel formation in aqueous solution, 11%: SS (SS for semisolid gel)
Compound: C[C@H](NC(=O)[C@@H](Cc1ccc2ccccc2c1)NC(=O)[C@@H](C)N)C(=O)N[C@@H](Cc1c[nH]c2ccccc12)C(=O)N[C@H](Cc1ccccc1)C(=O)N[C@@H](CCCCN)C(N)=O [SEQ ID NO:8, (D-Ala)-(D-(β-naphthyl))-AAW-(D-Phe)-Lys-NH2, reference compound] (H-[dA][d2Nal]AW[dF]K-NH2)
- gel formation at 11% w/w: form self-assembling gels; also recorded: semisolid gel
- propensity to form gels, wild-type counterparts, 6% (Table 5): SS (An ability to form semisolid gel is represented by an SS)
- propensity to form gels, wild-type counterparts, 11% (Table 5): SS (An ability to form semisolid gel is represented by an SS)

- Physical property at 11% w/w (Table 1): SS (SS for semisolid gel)
- gel formation in aqueous solution, 11%: SS (SS for semisolid gel)
Compound: CC[C@H](C)[C@H](N)C(=O)N[C@H]1CSSC[C@@H](C(=O)N[C@H](C(N)=O)[C@@H](C)O)NC(=O)[C@H](CCCN=C(N)N)NC(=O)[C@H](Cc2cnc[nH]2)NC(=O)[C@H](Cc2cnc[nH]2)NC(=O)CNC(=O)[C@H](Cc2c[nH]c3ccccc23)NC(=O)[C@H](CC(=O)O)NC(=O)[C@H](CCC(N)=O)NC(=O)[C@H](C(C)C)NC(=O)[C@H](C(C)C)NC1=O [SEQ ID NO:11, reference compound]
- gel formation at 11% w/w: form self-assembling gels; also recorded: semisolid gel
- propensity to form gels, wild-type counterparts, 11% (Table 5): SS (An ability to form semisolid gel is represented by an SS)

- Physical property at 11% w/w (Table 1): AS/IS
- propensity to form gels, wild-type counterparts, 11% (Table 5): AS/IS
Compound: (D-Nal)-(D-Cpa)-(D-Pal)-SY-(D-Cit)-LRP-(D-Ala)-NH2 [SEQ ID NO:27, reference compound]
- gel formation in aqueous solution, 11%: AS/IS (AS/IS for aqueous solution or insoluble)

- gel formation at 11% w/w: form self-assembling gels
- Physical property at 11% w/w (Table 1): SS (SS for semisolid gel)
- gel formation in aqueous solution, 6%: SS (SS for semisolid gel)
- gel formation in aqueous solution, 11%: SS (SS for semisolid gel)
Compound: (D-Phe)-QWAVGHL-(4-CI)Phe-NH2 [SEQ ID NO:61, reference compound]
- propensity to form gels, wild-type counterparts, 6% (Table 5): SS (An ability to form semisolid gel is represented by an SS)
- propensity to form gels, wild-type counterparts, 11% (Table 5): SS (An ability to form semisolid gel is represented by an SS)

- gel formation at 11% w/w: liquid gel
- propensity to form gels, wild-type counterparts, 6% (Table 5): AS/IS
Compound: (G1p)HWSY-(D-2Nal)-LRPG-NH2 [SEQ ID NO:15, reference compound]
- gel formation in aqueous solution, 6%: AS/IS (AS/IS for aqueous solution or insoluble)

- gel formation at 11% w/w: liquid gel
- gel formation at 20% w/w: liquid gel
- propensity to form gels, chimeric or mutated polypeptides, 3% (Table 5, 3% w/w): AS/IS
Compound: (G1p)RPRLSHKGP(Nle)PF-K(Pal)HSY-NH2 [SEQ ID NO:262]

- gel formation at 11% w/w: liquid gel
- gel formation at 20% w/w: liquid gel
Compound: (G1p)RPRLSHKGP(Nle)PF-miniPEG-K(Pal)VQKLSAPVDPSSPHSY-NH2 [SEQ ID NO:206]

- Physical property at 11% w/w (Table 2): SS (SS for semisolid gel)
Compound: (Lauric acid)-SSPHSY-NH2 [SEQ ID NO:122]

- Physical property at 11% w/w (Table 2): SS (SS for semisolid gel)
Compound: (Myristic acid)-SSPHSY-NH2 [SEQ ID NO:123]

- Physical property at 11% w/w (Table 1): AS/IS
- propensity to form gels, wild-type counterparts, 11% (Table 5): AS/IS
Compound: Ac-EEMQRR-NH2 [SEQ ID NO:47, reference compound]
- gel formation in aqueous solution, 11%: AS/IS (AS/IS for aqueous solution or insoluble)

- gel formation at 11% w/w: liquid gel
- propensity to form gels, wild-type counterparts, 3% (Table 5, 3% w/w): AS/IS
- propensity to form gels, wild-type counterparts, 6% (Table 5): AS/IS
Compound: Ace-K(PAL)FGCRFGTCTVQKLAHQIYQFTDKDKDNVAPRSKISPQGY-NH2 [SEQ ID NO:1]
- gel formation in aqueous solution, 6%: AS/IS (AS/IS for aqueous solution or insoluble)

Continued, compound first:

Compound: NC(=O)CC[C@@H]1NC(=O)[C@H](Cc2ccccc2)NC(=O)[C@H](Cc2ccc(O)cc2)NC(=O)[C@@H](N)CSSC[C@@H](C(=O)N2CCC[C@H]2C(=O)N[C@@H](CCCN=C(N)N)C(=O)NCC(N)=O)NC(=O)[C@H](CC(N)=O)NC1=O [SEQ ID NO:17, reference compound]
- gel formation at 11% w/w: does not form gel
- Physical property at 11% w/w (Table 1): AS/IS
- gel formation in aqueous solution, 11%: AS/IS (AS/IS for aqueous solution or insoluble)
- propensity to form gels, wild-type counterparts, 11% (Table 5): AS/IS

Compound: (D-Tyr)QWAV(β-Ala)HF(Nle)-NH2 [SEQ ID NO:20, reference compound]
- gel formation at 6% w/w: does not form gel
- gel formation at 11% w/w: does not form gel
- Physical property at 11% w/w (Table 1): AS/IS
- gel formation in aqueous solution, 6%: AS/IS (AS/IS for aqueous solution or insoluble)
- gel formation in aqueous solution, 11%: AS/IS (AS/IS for aqueous solution or insoluble)
- propensity to form gels, wild-type counterparts, 6% (Table 5): AS/IS
- propensity to form gels, wild-type counterparts, 11% (Table 5): AS/IS

Compound: (Glp)RPRLSHKGP(Nle)PF-NH2 (pyroGlu; Nle; C-terminal amide) [SEQ ID NO:18, reference compound]
- gel formation at 6% w/w: does not form gel
- gel formation at 11% w/w: does not form gel
- gel formation at 20% w/w: does not form gel
- Physical property at 11% w/w (Table 1): AS/IS
- gel formation in aqueous solution, 6%: AS/IS (AS/IS for aqueous solution or insoluble)
- gel formation in aqueous solution, 11%: AS/IS (AS/IS for aqueous solution or insoluble)
- gel formation in aqueous solution, 20%: AS/IS (AS/IS for aqueous solution or insoluble)
- propensity to form gels, wild-type counterparts, 6% (Table 5): AS/IS
- propensity to form gels, wild-type counterparts, 11% (Table 5): AS/IS
- propensity to form gels, wild-type counterparts, 20% (Table 5): AS/IS
- gel formation at the selected concentration: only form aqueous solution or are insoluble

Compound: Ace-FKFEFKFE-NH2 [SEQ ID NO:141, reference compound]
- Physical property at 11% w/w (Table 2): SS (SS for semisolid gel)

Compound: Ace-KVQKLSAPVDPSSPHSY-NH2 [SEQ ID NO:115]
- Physical property at 11% w/w (Table 2): AS/IS (AS/IS for aqueous solution or insoluble)

Compound: Ace-NFVPTNVGPFAF-NH2 (Ac-NFVPTNVGPFAF-NH2) [SEQ ID NO:134]
- Physical property at 11% w/w (Table 2): AS/IS (AS/IS for aqueous solution or insoluble)

Compound: Ace-RADARADARADARADA-NH2 [SEQ ID NO:142, reference compound]
- Physical property at 11% w/w (Table 2): SS (SS for semisolid gel)

Compound: Ace-TVQKLAHQIYQFTDKDKDNVAPRSKISPQGY-NH2 [SEQ ID NO:101]
- Physical property at 11% w/w (Table 2): AS/IS (AS/IS for aqueous solution or insoluble)

Compound: CSNLSTCVLGKLSQELHKLQTYPRTNTGSGTP-NH2 [SEQ ID NO:28, reference compound]
- gel formation at 11% w/w: does not form gel
- Physical property at 11% w/w (Table 1): AS/IS
- gel formation in aqueous solution, 20%: AS/IS (AS/IS for aqueous solution or insoluble)
- propensity to form gels, wild-type counterparts, 11% (Table 5): AS/IS

Compound: DRVYIHPF-NH2 [SEQ ID NO:16, reference compound]
- Physical property at 11% w/w (Table 1): AS/IS

Compound: EAYKAAEKAYAAKEAAKEAAKAKAEKKAAYAKAKAAKYEKKAKKAAAEYKKK [SEQ ID NO:42, reference compound]
- gel formation at 11% w/w: does not form gel
- gel formation at 20% w/w: does not form gel
- Physical property at 11% w/w (Table 1): AS/IS
- gel formation in aqueous solution, 11%: AS/IS (AS/IS for aqueous solution or insoluble)
- gel formation in aqueous solution, 20%: AS/IS (AS/IS for aqueous solution or insoluble)
- propensity to form gels, wild-type counterparts, 11% (Table 5): AS/IS
- propensity to form gels, wild-type counterparts, 20% (Table 5): AS/IS

Compound: FITC-K(Pal)SSPHSY-miniPEG-GRKKRRQRRRPQ ({FITC-K(Pal)-Ser-Ser-Pro-H2N-Ser-Tyr-miniPEG}-GRKKRRQRRRPQ) [SEQ ID NO:241]
- gel formation at 11% w/w: liquid gel
